Laboratory results published in PubChem BioAssay (NCI).
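Values below derive from 48-hour exposures of cells grown in 96-well plates, with endpoints linearly interpolated between the two concentrations bracketing the appropriate inhibition level. GI50 marks 50% less growth. Definition used: TGI = concentration required for complete inhibition of growth.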

Legend:
Assay in all cases: NCI anticancer screen, dose series, 48 h
[1] = test system: UACC-62 melanoma
[2] = test system: NCI-H226 lung
[3] = test system: MDA-MB-231 breast
[4] = test system: T-47D breast
[5] = test system: DU-145 prostate
[6] = test system: SF-539 CNS
[7] = test system: ACHN renal
[8] = test system: CCRF-CEM leukemia
[9] = test system: CAKI-1 renal
[10] = test system: HS 578T breast
[11] = test system: OVCAR-5 ovarian
[12] = test system: SK-MEL-2 melanoma
[13] = test system: A498 renal
[14] = test system: LOX IMVI melanoma
[15] = test system: NCI-H460 lung
[16] = test system: SNB-19 CNS
[17] = test system: HCC-2998 colon
[18] = test system: RPMI-8226 leukemia
[19] = test system: SK-MEL-28 melanoma
[20] = test system: UO-31 renal
[21] = test system: OVCAR-3 ovarian
[22] = test system: NCI-H522 lung
[23] = test system: NCI-H23 lung
[24] = test system: SNB-75 CNS
[25] = test system: SF-268 CNS
[26] = test system: SK-OV-3 ovarian
[27] = test system: SK-MEL-5 melanoma
[28] = test system: 786-0 renal
[29] = test system: OVCAR-4 ovarian
[30] = test system: UACC-257 melanoma
[31] = test system: U251 CNS
[32] = test system: SN12C renal
[33] = test system: OVCAR-8 ovarian
[34] = test system: BT-549 breast
[35] = test system: RXF 393 renal
[36] = test system: A549 NSCLC
[37] = test system: PC-3 prostate
[38] = test system: M14 melanoma
[39] = test system: MALME-3M melanoma
[40] = test system: HOP-92 NSCLC
[41] = test system: TK-10 renal

C[C@@H](Nc1nc(Nc2ccc(F)c(Cl)c2)nc2c(C3=CCNCC3)cccc12)C1CC1
GI50 [1]: 1.82 µM | TGI [1]: 3.36 µM | GI50 [2]: 2.31 µM | TGI [2]: 5.03 µM | GI50 [3]: 1.72 µM | TGI [3]: 3.28 µM | GI50 [4]: 1.91 µM | TGI [4]: 4.38 µM | GI50 [5]: 1.64 µM | TGI [5]: 3.04 µM | GI50 [6]: 1.68 µM | TGI [6]: 3.17 µM | GI50 [7]: 1.81 µM | TGI [7]: 3.32 µM | GI50 [8]: 2.21 µM | TGI [8]: 5.54 µM | GI50 [9]: 1.58 µM | TGI [9]: 2.99 µM | GI50 [10]: 1.99 µM | TGI [10]: 4.82 µM | GI50 [11]: 1.53 µM | TGI [11]: 3.25 µM

Cc1cc(C)c2c(c1)CC1(Cc3ccc(C)c(C)c3C1=O)C2=O (stereo not given)
TGI [1]: > 100 µM | TGI [12]: > 100 µM | TGI [13]: > 100 µM | TGI [14]: > 100 µM | TGI [15]: > 100 µM | TGI [16]: > 100 µM | TGI [17]: > 100 µM | TGI [18]: > 100 µM | TGI [19]: > 100 µM | TGI [3]: > 100 µM | TGI [20]: > 100 µM | TGI [4]: > 100 µM | TGI [21]: > 100 µM | TGI [5]: > 100 µM | TGI [22]: > 100 µM | TGI [23]: > 100 µM | TGI [6]: > 100 µM | TGI [24]: > 100 µM | TGI [25]: > 100 µM | TGI [26]: > 100 µM | TGI [27]: > 100 µM | TGI [28]: > 100 µM | TGI [29]: > 100 µM | TGI [30]: > 100 µM | TGI [31]: > 100 µM | TGI [32]: > 100 µM | TGI [33]: > 100 µM | TGI [34]: > 100 µM | TGI [35]: > 100 µM | TGI [9]: > 100 µM | TGI [36]: > 100 µM | TGI [37]: > 100 µM | TGI [38]: > 100 µM | TGI [10]: > 100 µM | TGI [39]: > 100 µM | TGI [40]: > 100 µM | TGI [11]: > 100 µM | TGI [41]: > 100 µM
